In PMC6576746, “Rational discovery of dual-indication multi-target PDE/Kinase inhibitor for precision anti-cancer therapy using structural systems pharmacology” (PLoS Computational Biology, 2019):
pEC50, pIC50: −log10 of the molar value.

Experiments:
Test in all cases: cells
Parameters in all cases: species or system panel of human cancer cell lines; Eurofins OncoPanel proliferation; nuclei count by high-content fluorescence imaging, 10-point dose response
G-401 = details: Homo sapiens, G-401, 72 h, cell count, 3 days
Procedure, shortened: (§1)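 Ten half-log concentrations from 100 μM (0.1% DMSO max) applied one day post-seeding, 3-day exposure at 37°C; untreated time-zero plate for GI50. Readout is nuclear cell count by automated fluorescence imaging, giving EC50, IC50, GI50 and 0–10 activity area.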

SW837 = details: Homo sapiens, SW837, 72 h, cell count, 3 days
Procedure, shortened: as §1

TE 381.T = details: TE 381.T, 72 h, cell count, 3 days
Procedure, shortened: as §1

SU-DHL-10 = details: Homo sapiens, SU-DHL10, 72 h, cell count, 3 days
Procedure, shortened: as §1

Hs 936.T(C1) = details: 72 h, cell count, 3 days
Procedure, shortened: as §1

SNB-19 = details: Homo sapiens, SNB-19, 72 h, cell count, 3 days
Procedure, shortened: as §1

Thp1 = details: Homo sapiens, THP-1, 72 h, cell count, 3 days
Procedure, shortened: as §1

CEM-C1 = details: CEM/C1, 72 h, cell count, 3 days
Procedure, shortened: as §1

NTERA-2 cl.D1 = details: Homo sapiens, NTERA-2-cl-D1, 72 h, cell count, 3 days
Procedure, shortened: as §1

BV-173 = details: Homo sapiens, BV-173, 72 h, cell count, 3 days
Procedure, shortened: as §1

MHH-PREB-1 = details: Homo sapiens, MHH-PREB-1, 72 h, cell count, 3 days
Procedure, shortened: as §1

Calu6 = details: Homo sapiens, Calu-6, 72 h, cell count, 3 days
Procedure, shortened: as §1

HuCCT1 = details: Homo sapiens, HuCCT-1, 72 h, cell count, 3 days
Procedure, shortened: as §1

MG-63 = details: Homo sapiens, MG-63, 72 h, cell count, 3 days
Procedure, shortened: as §1

[1] = 50% of maximum possible response

- pIC50 (SW837; [1]): 4.43
- GI50 (SW837; corrected for time zero): 31.8 µM
- pEC50 (SW837; curve inflection point): 4.48
- pIC50 (SU-DHL-10; [1]): 4.88
- GI50 (SU-DHL-10; corrected for time zero): 12 µM
- pEC50 (SU-DHL-10; curve inflection point): 4.88
- pIC50 (Thp1; [1]): 4.45
- GI50 (Thp1; corrected for time zero): 23.1 µM
- pEC50 (Thp1; curve inflection point): 4.45
- pIC50 (Calu6; [1]): < 4.00
- GI50 (Calu6; corrected for time zero): 91.5 µM
- pEC50 (Calu6; curve inflection point): < 4.00
Structure (SMILES): C[C@@H]1CC(=O)NN=C1c1ccc(NN=C(C#N)C#N)cc1 [levosimendan]
- pIC50 (G-401; [1]): 5.26
- GI50 (G-401; corrected for time zero): 4.83 µM
- pEC50 (G-401; curve inflection point): 5.27
- pIC50 (TE 381.T; [1]): 4.61
- GI50 (TE 381.T; corrected for time zero): 15.5 µM
- pEC50 (TE 381.T; curve inflection point): 4.61
- pIC50 (Hs 936.T(C1); [1]): < 4.00
- GI50 (Hs 936.T(C1); corrected for time zero): > 100 µM
- pEC50 (Hs 936.T(C1); curve inflection point): < 4.00
- pIC50 (SNB-19; [1]): < 4.00
- GI50 (SNB-19; corrected for time zero): > 100 µM
- pEC50 (SNB-19; curve inflection point): < 4.00
- pIC50 (CEM-C1; [1]): 4.65
- GI50 (CEM-C1; corrected for time zero): 18.8 µM
- pEC50 (CEM-C1; curve inflection point): 4.65
- pIC50 (NTERA-2 cl.D1; [1]): 4.93
- GI50 (NTERA-2 cl.D1; corrected for time zero): 9.76 µM
- pEC50 (NTERA-2 cl.D1; curve inflection point): 4.94
- pIC50 (BV-173; [1]): 4.92
- GI50 (BV-173; corrected for time zero): 10.1 µM
- pEC50 (BV-173; curve inflection point): 4.92
- pIC50 (MHH-PREB-1; [1]): 5.12
- GI50 (MHH-PREB-1; corrected for time zero): 7.08 µM
- pEC50 (MHH-PREB-1; curve inflection point): 5.13
- pIC50 (HuCCT1; [1]): 4.56
- GI50 (HuCCT1; corrected for time zero): 24.8 µM
- pEC50 (HuCCT1; curve inflection point): 4.60
- pIC50 (MG-63; [1]): 4.71
- GI50 (MG-63; corrected for time zero): 14.2 µM
- pEC50 (MG-63; curve inflection point): 4.77
